Laboratory results reported in ChEMBL document CHEMBL1201862, “PubChem BioAssay data set” (2004).
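Where inhibition never reached the appropriate level, the endpoint shown equals the highest concentration tested. Otherwise, values were interpolated linearly from a five-concentration, 48-hour dose response in 96-well plates. Abbreviation: GI50, concentration required for 50% inhibition of growth.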 Active and inactive are the calls of the source. No stated cut-off is given here; in the data, active = GI50 up to about 1.1 µM and inactive = higher.

Key:
Assay in all cases: NCI-60 cell line screen, 48 h
HOP-92 = system: HOP-92
K562 = system: K562
M14 = system: M14
MCF7 = system: MCF7
NCI-H23 = system: NCI-H23
PC-3 = system: PC-3
RXF 393 = system: RXF 393
SF-295 = system: SF-295
SF-539 = system: SF-539
SK-MEL-5 = system: SK-MEL-5
SR = system: SR
UACC-257 = system: UACC-257
UO-31 = system: UO-31
A498 = system: A498
HCT-116 = system: HCT-116
RPMI-8226 = system: RPMI-8226
SK-MEL-28 = system: SK-MEL-28
SK-OV-3 = system: SK-OV-3
T47D = system: T47D

SMILES	GI50 (HOP-92)	GI50 (K562)	GI50 (M14)	GI50 (MCF7)	GI50 (NCI-H23)	GI50 (PC-3)	GI50 (RXF 393)	GI50 (SF-295)	GI50 (SF-539)	GI50 (SK-MEL-5)	GI50 (SR)	GI50 (UACC-257)	GI50 (UO-31)	GI50 (A498)	GI50 (HCT-116)	GI50 (RPMI-8226)	GI50 (SK-MEL-28)	GI50 (SK-OV-3)	GI50 (T47D)
COc1cc(C2C(Cl)C(=O)N2NC(=O)c2ccccc2O)cc(OC)c1OC (centres undefined)	5.66 µM (inactive)	2.95 µM (inactive)	6.31 µM (inactive)	2.9 µM (inactive)	2.4 µM (inactive)	3.52 µM (inactive)	> 10 µM (inactive)	1.8 µM (inactive)	3.5 µM (inactive)	5.07 µM (inactive)	2.98 µM (inactive)	1.89 µM (inactive)	7.76 µM (inactive)						
c1ccc(-c2sc(-c3ccccc3)c3c2C2CCC3C2)cc1	12.6 µM (inactive)	35.2 µM (inactive)	35.3 µM (inactive)		33.5 µM (inactive)	25.5 µM (inactive)	24.3 µM (inactive)	35.1 µM (inactive)	26 µM (inactive)	20 µM (inactive)	17.4 µM (inactive)	40.3 µM (inactive)	16 µM (inactive)	53.3 µM (inactive)	27 µM (inactive)	16.1 µM (inactive)	49 µM (inactive)	64 µM (inactive)	38.7 µM (inactive)
c1csc(-c2ccc(-c3ccc(-c4ccc(-c5cccs5)s4)s3)s2)c1	> 100 µM (inactive)	47.1 µM (inactive)	26.9 µM (inactive)	8.36 µM (inactive)	> 100 µM (inactive)		56.5 µM (inactive)	40.6 µM (inactive)	> 100 µM (inactive)	> 100 µM (inactive)	35.7 µM (inactive)	> 100 µM (inactive)	> 100 µM (inactive)	> 100 µM (inactive)	> 100 µM (inactive)	> 100 µM (inactive)		> 100 µM (inactive)	
Cc1ccc(S(=O)(=O)N/N=C/c2oc(-c3ccccc3Cl)c(-c3ccccc3Cl)c2[N+](=O)[O-])cc1	28.5 µM (inactive)	12.9 µM (inactive)	31 µM (inactive)		13.4 µM (inactive)		13.8 µM (inactive)	> 100 µM (inactive)	22.4 µM (inactive)	19.5 µM (inactive)	7.64 µM (inactive)	37.2 µM (inactive)	17.8 µM (inactive)	20.8 µM (inactive)	6.37 µM (inactive)	3.73 µM (inactive)	22.9 µM (inactive)	45 µM (inactive)	
CCCCCCCCCCCCCCCCOP(=O)(O)OCC(N)C(=O)O (centres undefined)	19.5 µM (inactive)	22.8 µM (inactive)	24.8 µM (inactive)		27 µM (inactive)	12 µM (inactive)	23.8 µM (inactive)	14.5 µM (inactive)	21.3 µM (inactive)	17.8 µM (inactive)	33 µM (inactive)	52.5 µM (inactive)	12.9 µM (inactive)	19.8 µM (inactive)	12.5 µM (inactive)	18.6 µM (inactive)	43.1 µM (inactive)	21.8 µM (inactive)	28.2 µM (inactive)
CC(=O)C1CCN(c2ccccc2)C1 (centres undefined)	> 100 µM (inactive)	> 100 µM (inactive)	> 100 µM (inactive)		> 100 µM (inactive)		> 100 µM (inactive)	> 100 µM (inactive)	> 100 µM (inactive)	> 100 µM (inactive)	> 100 µM (inactive)	> 100 µM (inactive)	> 100 µM (inactive)	> 100 µM (inactive)	> 100 µM (inactive)		> 100 µM (inactive)	> 100 µM (inactive)	
COc1ccc(N2C(=O)C(=O)N(c3ccccc3[N+](=O)[O-])C2=S)cc1	19.6 µM (inactive)	32.1 µM (inactive)			21 µM (inactive)	40.5 µM (inactive)	18 µM (inactive)	35.1 µM (inactive)	30.1 µM (inactive)	17.6 µM (inactive)	47.3 µM (inactive)	17.1 µM (inactive)	34 µM (inactive)	27 µM (inactive)	28.6 µM (inactive)	30.5 µM (inactive)	33 µM (inactive)	25.1 µM (inactive)	22.6 µM (inactive)
CCOC(=O)C1(C(=O)OCC)C[C@@H](C)[C@@H](O)C1	> 100 µM (inactive)	> 100 µM (inactive)	> 100 µM (inactive)	> 100 µM (inactive)	> 100 µM (inactive)	> 100 µM (inactive)	> 100 µM (inactive)	> 100 µM (inactive)	> 100 µM (inactive)	> 100 µM (inactive)	> 100 µM (inactive)	> 100 µM (inactive)	> 100 µM (inactive)	> 100 µM (inactive)	> 100 µM (inactive)	> 100 µM (inactive)	> 100 µM (inactive)	> 100 µM (inactive)	
CC(C)C(=O)/C=C/S/C=C/C(=O)C(C)C			3.92 µM (inactive)	23 µM (inactive)	2.59 µM (inactive)		4.54 µM (inactive)	34.9 µM (inactive)	16.8 µM (inactive)	5.83 µM (inactive)		2.72 µM (inactive)	4.93 µM (inactive)		1.69 µM (inactive)		4.28 µM (inactive)	41.8 µM (inactive)	5.16 µM (inactive)
O=C(O)C[n+]1cn(NC(=O)Cc2ccccc2)cn1	> 10 µM (inactive)	> 10 µM (inactive)	> 10 µM (inactive)	> 10 µM (inactive)	> 10 µM (inactive)			> 10 µM (inactive)	> 10 µM (inactive)	> 10 µM (inactive)	> 10 µM (inactive)	> 10 µM (inactive)	> 10 µM (inactive)	> 10 µM (inactive)	> 10 µM (inactive)	0.501 µM (active)	> 10 µM (inactive)	> 10 µM (inactive)	> 10 µM (inactive)
CC(O)CCCCC(O)CCC[C@H](O)[C@H]1CCC([C@H]2CCC([C@@H](O)CCCCCCCCCCCCC3=C[C@H](C)OC3=O)O2)O1 (some centres undefined)	11.4 µM (inactive)		11.4 µM (inactive)	5.25 µM (inactive)	8.65 µM (inactive)	10.7 µM (inactive)	12.1 µM (inactive)	9.29 µM (inactive)	10.4 µM (inactive)	7.93 µM (inactive)	0.0075 µM (active)	9.33 µM (inactive)	9.44 µM (inactive)		0.0667 µM (active)		13.5 µM (inactive)	11.7 µM (inactive)	
Oc1cc(-c2cccc(Cl)c2)nc2ncccc12	21 µM (inactive)	0.0208 µM (active)	0.0845 µM (active)	0.122 µM (active)	1.54 µM (inactive)	0.0248 µM (active)	0.219 µM (active)	0.0533 µM (active)	0.0532 µM (active)	0.0387 µM (active)	0.0378 µM (active)	84.3 µM (inactive)	2.52 µM (inactive)	0.53 µM (active)	0.0312 µM (active)	0.05 µM (active)	0.183 µM (active)	0.163 µM (active)	
